# From US20210253575A1, “PYRROLIDINE AMINE COMPOUNDS FOR THE TREATMENT OF AUTOIMMUNE DISEASE” (Hoffmann-La Roche Inc., priority 2018, published 2021)
# Target: T1, human TLR9 (Homo sapiens, UniProt Q9NR96)
# T1 sequence (Q9NR96 26-1032): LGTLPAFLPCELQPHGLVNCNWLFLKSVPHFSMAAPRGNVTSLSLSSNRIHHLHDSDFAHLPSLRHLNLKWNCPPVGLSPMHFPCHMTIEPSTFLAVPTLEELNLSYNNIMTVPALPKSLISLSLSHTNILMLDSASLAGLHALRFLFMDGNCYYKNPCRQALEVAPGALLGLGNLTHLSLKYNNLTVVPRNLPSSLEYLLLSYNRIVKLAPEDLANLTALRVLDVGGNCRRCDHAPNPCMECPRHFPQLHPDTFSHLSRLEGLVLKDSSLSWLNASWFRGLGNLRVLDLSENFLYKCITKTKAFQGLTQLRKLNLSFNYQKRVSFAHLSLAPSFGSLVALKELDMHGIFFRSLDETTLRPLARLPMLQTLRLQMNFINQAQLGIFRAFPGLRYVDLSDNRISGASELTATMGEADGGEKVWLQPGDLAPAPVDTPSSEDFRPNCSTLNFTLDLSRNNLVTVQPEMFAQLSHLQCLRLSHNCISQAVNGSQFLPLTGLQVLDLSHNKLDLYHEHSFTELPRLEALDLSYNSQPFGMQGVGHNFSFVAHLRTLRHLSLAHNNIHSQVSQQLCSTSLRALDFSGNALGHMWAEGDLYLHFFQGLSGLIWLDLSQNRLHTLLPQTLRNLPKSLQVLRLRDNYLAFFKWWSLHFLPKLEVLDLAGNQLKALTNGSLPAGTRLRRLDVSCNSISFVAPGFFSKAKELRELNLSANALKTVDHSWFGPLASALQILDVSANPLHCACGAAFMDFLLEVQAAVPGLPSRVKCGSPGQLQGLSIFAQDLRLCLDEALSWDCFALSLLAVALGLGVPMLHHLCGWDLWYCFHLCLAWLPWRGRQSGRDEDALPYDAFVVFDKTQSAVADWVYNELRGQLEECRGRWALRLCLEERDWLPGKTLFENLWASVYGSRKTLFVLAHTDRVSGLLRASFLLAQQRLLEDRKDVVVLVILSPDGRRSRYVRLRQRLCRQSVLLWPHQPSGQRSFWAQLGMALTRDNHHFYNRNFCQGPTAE
# Assay: HEK293-Blue-hTLR-9 cells assay (SEAP reporter, ODN2006 stimulation)
# Type: cell-based
# Details: HEK293-Blue-hTLR9 cells, ODN2006 ligand, 20 hrs incubation
# Protocol: The following tests were carried out in order to determine the activity of the compounds of formula (I) in HEK293-Blue-hTLR-7/8/9 cells assay.
# HEK293-Blue-hTLR-9 Cells Assay:
# A stable HEK293-Blue-hTLR-9 cell line was purchased from InvivoGen (Cat. #: hkb-htlr9, San Diego, Calif., USA). These cells were originally designed for studying the stimulation of human TLR9 by monitoring the activation of NF-κB. A SEAP (secreted embryonic alkaline phosphatase) reporter gene was placed under the control of the IFN-β minimal promoter fused to five NF-κB and AP-1-binding sites. The SEAP was induced by activating NF-κB and AP-1 via stimulating HEK-Blue hTLR9 cells with TLR9 ligands. Therefore the reporter expression was declined by TLR9 antagonist under the stimulation of a ligand, such as ODN2006 (Cat. #: tlrl-2006-1, Invivogen, San Diego, Calif., USA), for incubation of 20 hrs. The cell culture supernatant SEAP reporter activity was determined using QUANTI-Blue™ kit (Cat. #: rep-qb1, Invivogen, San Diego, Calif., USA) at a wavelength of 640 nm, a detection medium that turns purple or blue in the presence of alkaline phosphatase.
# HEK293-Blue-hTLR9 cells were incubated at a density of 250,000˜450,000 cells/mL in a volume of 170 μL in a 96-well plate in Dulbecco's Modified Eagle's medium (DMEM) containing 4.5 g/L glucose, 50 U/mL penicillin, […], […], 2 mM L-glutamine, 10% (v/v) heat-inactivated fetal bovine serum with addition of 20 μL test compound in a serial dilution in the presence of final DMSO at 1% and 10 μL of 20 uM ODN2006 in above DMEM, perform incubation under 37° C. in a CO2incubator for 20 hrs. Then 20 μL of the superatant from each well was incubated with 180 μL Quanti-blue substrate solution at 37° C. for 2 hrs and the absorbance was read at 620˜655 nm using a spectrophotometer. The signalling pathway that TLR9 activation leads to downstream NF-κB activation has been widely accepted, and therefore similar reporter assay was modified for evaluating TLR9 antagonist.
row,SMILES,IC50
1,"N#Cc1ccc(N2CC(CN3CCC4(CC3)CNCCO4)C3(CC3)C2)c2nccnc12 (stereo not drawn) [Example 49, 8-[7-(1-Oxa-4,9-diazaspiro[5.5]undecan-9-ylmethyl)-5-azaspiro[2.4]heptan-5-yl]quinoxaline-5-carbonitrile]",87 nM
2,"N#Cc1ccc(N2C[C@H](CN3CCC4(CCNCC4)CC3)[C@@H](C(F)(F)F)C2)c2cccnc12 [Example 2, 5-[(3S,4R)-3-(3,9-diazaspiro[5.5]undecan-3-ylmethyl)-4-(trifluoromethyl)pyrrolidin-1-yl]quinoline-8-carbonitrile]",76 nM
3,"C[C@H]1CN(C[C@H]2CN(c3ccc(C#N)c4nccnc34)C[C@@H]2C(F)(F)F)CC[C@H]1N [Example 72, 8-[(3S,4R)-3-[[(3S,4R)-4-amino-3-methyl-1-piperidyl]methyl]-4-(trifluoromethyl)pyrrolidin-1-yl]quinoxaline-5-carbonitrile]",506 nM
4,"CC1(CN)CCCN(C[C@H]2CN(c3ccc(C#N)c4nccnc34)C[C@@H]2C(F)(F)F)C1 (stereo partly drawn) [Example 75, 8-[(3S,4R)-3-[[3-(aminomethyl)-3-methyl-1-piperidyl]methyl]-4-(trifluoromethyl)pyrrolidin-1-yl]quinoxaline-5-carbonitrile]",767 nM
5,"N#Cc1ccc(N2CC(CNC3CCCNCC3)C3(CC3)C2)c2nccnc12 (stereo not drawn) [Example 39, 8-[7-[(Azepan-4-ylamino)methyl]-5-azaspiro[2.4]heptan-5-yl]quinoxaline-5-carbonitrile]",97 nM
6,"CC(C)[C@@H]1CN(c2ccc(C#N)c3ncccc23)C[C@H]1CN1CCC2(CCNC2)C1 (relative stereo) [Example 44, 5-[Trans-3-(2,7-diazaspiro[4.4]nonan-2-ylmethyl)-4-isopropyl-pyrrolidin-1-yl]quinoline-8-carbonitrile]",91 nM
7,"CC1(N)CCN(C[C@H]2CN(c3ccc(C#N)c4nccnc34)C[C@@H]2C(F)(F)F)CC1 [Example 12, 8-[(3S,4R)-3-[(4-amino-4-methyl-1-piperidyl)methyl]-4-(trifluoromethyl)pyrrolidin-1-yl]quinoxaline-5-carbonitrile]",219 nM
8,"FC(F)(F)c1ccc(N2CC(CN3CCNCC3)C3(CC3)C2)c2nccnc12 (stereo not drawn) [Example 20, 5-[7-(Piperazin-1-ylmethyl)-5-azaspiro[2.4]heptan-5-yl]-8-(trifluoromethyl)quinoxaline]",5640 nM
9,"C[C@H]1CN(c2ccc(C#N)c3ncccc23)C[C@@H]1CN1CCC2(CCNCC2)CC1 [Example 23, 5-[(3S,4R)-3-(3,9-diazaspiro[5.5]undecan-3-ylmethyl)-4-methyl-pyrrolidin-1-yl]quinoline-8-carbonitrile]",45 nM
10,"N#Cc1ccc(N2CC(CN3CCC4NCC4C3)C3(CC3)C2)c2nccnc12 (stereo not drawn) [Example 66, 8-[7-(3,7-Diazabicyclo[4.2.0]octan-3-ylmethyl)-5-azaspiro[2.4]heptan-5-yl]quinoxaline-5-carbonitrile]",123 nM
11,"C[C@@H]1CN(c2ccc(C(F)(F)F)c3nccnc23)C[C@H]1CN1CCC2(CCNCC2)CC1 (relative stereo) [Example 21, 3-[[Trans-4-methyl-1-[8-(trifluoromethyl)quinoxalin-5-yl]pyrrolidin-3-yl]methyl]-3,9-diazaspiro[5.5]undecane]",294 nM
12,"N#Cc1ccc(N2C[C@H](CN3CCC4(CCNC4)C3)[C@@H](C(F)(F)F)C2)c2nccnc12 (stereo partly drawn) [Example 5, 8-[(3S,4R)-3-(2,7-diazaspiro[4.4]nonan-2-ylmethyl)-4-(trifluoromethyl)pyrrolidin-1-yl]quinoxaline-5-carbonitrile]",137 nM
13,"N#Cc1ccc(N2C[C@@H](CN3CCC4(CCNCC4)CC3)[C@H](C3CC3)C2)c2cccnc12 (relative stereo) [Example 28, 5-[Trans-3-cyclopropyl-4-(3,9-diazaspiro[5.5]undecan-3-ylmethyl)pyrrolidin-1-yl]quinoline-8-carbonitrile]",39 nM
14,"N#Cc1ccc(N2C[C@H](CN3CCC4(CCCNC4)CC3)[C@@H](C(F)(F)F)C2)c2cccnc12 [Example 55, 5-[(3S,4R)-3-(2,9-Diazaspiro[5.5]undecan-9-ylmethyl)-4-(trifluoromethyl)pyrrolidin-1-yl]quinoline-8-carbonitrile]",173 nM
15,"N#Cc1ccc(N2C[C@H](CN3CC4(CC(N)C4)C3)[C@@H](C(F)(F)F)C2)c2cccnc12 [Example 53, 5-[(3S,4R)-3-[(6-Amino-2-azaspiro[3.3]heptan-2-yl)methyl]-4-(trifluoromethyl)pyrrolidin-1-yl]quinoline-8-carbonitrile]",219 nM
16,"N#Cc1ccc(N2CC(CN3CCC4(CCCCN4)CC3)C3(CC3)C2)c2nccnc12 (stereo not drawn) [Example 65, 8-[7-(1,9-Diazaspiro[5.5]undecan-9-ylmethyl)-5-azaspiro[2.4]heptan-5-yl]quinoxaline-5-carbonitrile]",68 nM
17,"N#Cc1ccc(N2C[C@H](CN3CCC(CCN)CC3)[C@@H](C(F)(F)F)C2)c2nccnc12 [Example 79, 8-[(3S,4R)-3-[[4-(2-aminoethyl)-1-piperidyl]methyl]-4-(trifluoromethyl)pyrrolidin-1-yl]quinoxaline-5-carbonitrile]",248 nM
18,"N#Cc1ccc(N2C[C@H](CN3CCC4(CCNCC4)CC3)[C@@H](C(F)(F)F)C2)c2nccnc12 [Example 1, 8-[(3S,4R)-3-(3,9-diazaspiro[5.5]undecan-3-ylmethyl)-4-(trifluoromethyl)pyrrolidin-1-yl]quinoxaline-5-carbonitrile]",106 nM
19,"N#Cc1ccc(N2C[C@H](CN3CCC4(CCNC4)CC3)[C@@H](C(F)(F)F)C2)c2nccnc12 [Example 14, 8-[(3S,4R)-3-(2,8-Diazaspiro[4.5]decan-8-ylmethyl)-4-(trifluoromethyl)pyrrolidin-1-yl]quinoxaline-5-carbonitrile]",153 nM
20,"N#Cc1ccc(N2C[C@H](CN3CCC4(CCNCC4)C3)[C@@H](C(F)(F)F)C2)c2cccnc12 [Example 56, 5-[(3S,4R)-3-(2,8-Diazaspiro[4.5]decan-2-ylmethyl)-4-(trifluoromethyl)pyrrolidin-1-yl]quinoline-8-carbonitrile]",159 nM
21,"N#Cc1ccc(N2CCC(CN3CCC4(CCNCC4)CC3)C2)c2nccnc12 (stereo not drawn) [Example 37, 8-[3-(3,9-Diazaspiro[5.5]undecan-3-ylmethyl)pyrrolidin-1-yl]quinoxaline-5-carbonitrile]",32 nM
22,"N#Cc1ccc(N2CC(CN3CCC4(CCNCC4)C3)C3(CC3)C2)c2nccnc12 (stereo not drawn) [Example 32, 8-[7-(2,8-Diazaspiro[4.5]decan-2-ylmethyl)-5-azaspiro[2.4]heptan-5-yl]quinoxaline-5-carbonitrile]",80 nM
23,"N#Cc1ccc(N2C[C@H](CN3CC4(CCNCC4)C3)[C@@H](C(F)(F)F)C2)c2nccnc12 [Example 48, 8-[(3S,4R)-3-(2,7-diazaspiro[3.5]nonan-2-ylmethyl)-4-(trifluoromethyl)pyrrolidin-1-yl]quinoxaline-5-carbonitrile]",97 nM
24,"N#Cc1ccc(N2CC(CN3CCC4(CCNC4)C3)C3(CC3)C2)c2cccnc12 (stereo not drawn) [Example 43, 5-[7-(2,7-Diazaspiro[4.4]nonan-2-ylmethyl)-5-azaspiro[2.4]heptan-5-yl]quinoline-8-carbonitrile]",62 nM
